Reference: ChEMBL document CHEMBL3045872, “The Design and Synthesis of a Novel, Orally Active, Selective ETA Antagonist” (Med Chem Res, 2004)

What was measured:
[1] = Inhibition of endothelin converting enzyme (unknown origin); parameters: species or system Homo sapiens
[2] = molecular target: T1, Endothelin receptor type B (Homo sapiens, UniProt P24530); test: Displacement of [I125]ET1 from Homo sapiens (human) ETB receptor expressed in CHO cells; type: cell-based
T1 sequence (P24530 whole entry): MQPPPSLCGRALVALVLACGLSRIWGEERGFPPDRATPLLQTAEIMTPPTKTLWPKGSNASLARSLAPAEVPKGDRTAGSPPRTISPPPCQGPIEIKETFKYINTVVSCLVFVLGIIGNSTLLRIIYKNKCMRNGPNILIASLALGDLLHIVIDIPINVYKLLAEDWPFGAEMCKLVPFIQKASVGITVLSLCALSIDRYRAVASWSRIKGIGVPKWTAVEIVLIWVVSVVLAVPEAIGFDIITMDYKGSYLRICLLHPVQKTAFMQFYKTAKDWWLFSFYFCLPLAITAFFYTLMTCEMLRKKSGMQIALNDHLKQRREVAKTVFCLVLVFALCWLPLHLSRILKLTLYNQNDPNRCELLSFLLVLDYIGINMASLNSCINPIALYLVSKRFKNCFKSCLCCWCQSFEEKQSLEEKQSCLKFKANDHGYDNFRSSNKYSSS

Endothelin-1 receptor = molecular target: T2, Endothelin-1 receptor (Homo sapiens, UniProt P25101); test: Displacement of [I125]ET1 from Homo sapiens (human) ETA receptor expressed in CHO cells; type: cell-based
T2 sequence (P25101 whole entry): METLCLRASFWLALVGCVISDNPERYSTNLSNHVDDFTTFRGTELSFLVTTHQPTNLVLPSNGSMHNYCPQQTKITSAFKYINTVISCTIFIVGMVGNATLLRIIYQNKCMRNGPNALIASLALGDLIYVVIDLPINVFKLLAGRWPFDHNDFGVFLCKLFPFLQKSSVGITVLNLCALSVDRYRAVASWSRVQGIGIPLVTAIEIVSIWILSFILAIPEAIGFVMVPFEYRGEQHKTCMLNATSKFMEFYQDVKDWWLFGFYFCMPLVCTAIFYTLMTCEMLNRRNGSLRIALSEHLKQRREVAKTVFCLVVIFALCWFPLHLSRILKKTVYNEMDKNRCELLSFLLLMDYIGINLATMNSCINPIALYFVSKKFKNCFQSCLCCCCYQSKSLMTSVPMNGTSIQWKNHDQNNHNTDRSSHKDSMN

Rattus norvegicus [3] = test: Unbound clearance in Rattus norvegicus Sprague-Dawley (rat) at 2 mg/kg, iv; type: ADME, organism-based; parameters: dose 2 mg/kg, route intravenous; conditions: in vivo
[4] = Fraction unbound in Rattus norvegicus Sprague-Dawley (rat) at 2 mg/kg, iv; type: ADME, organism-based; parameters: dose 2 mg/kg, route intravenous; conditions: in vivo
[5] = Permeability of the compound across Homo sapiens (human) Caco2 cells; type: ADME, cell-based; conditions: Caco-2, read-out: permeability
[6] = Volume of distribution in Rattus norvegicus Sprague-Dawley (rat) at 2 mg/kg, iv; type: ADME, organism-based; parameters: dose 2 mg/kg, route intravenous; conditions: in vivo
[7] = Drug absorption in Rattus norvegicus Sprague-Dawley (rat) at 2 mg/kg, iv; type: ADME, organism-based; parameters: dose 2 mg/kg, route intravenous; conditions: in vivo, read-out: Drug absorption
Rattus norvegicus [8] = test: Prodrug conversion in Rattus norvegicus (rat) assessed as (S)-3-(1-(benzo[d][1,3]dioxol-5-yl)-2-(2-methoxy-4-methylphenylsulfonamido)-2-oxoethyl)-1-methyl-1H-indole-6-carboxylic acid level at 2 mg/kg, iv; type: ADME, organism-based; parameters: dose 2 mg/kg, route intravenous; conditions: in vivo
Rattus norvegicus [9] = test: Prodrug conversion in Rattus norvegicus (rat) assessed as (S)-3-(1-(benzo[d][1,3]dioxol-5-yl)-2-(2-methoxy-4-methylphenylsulfonamido)-2-oxoethyl)-1-methyl-1H-indole-6-carboxylic acid level at 2 mg/kg, po; type: ADME, organism-based; parameters: dose 2 mg/kg, route oral; conditions: in vivo
Rattus norvegicus [10] = test: Tmax in Rattus norvegicus (rat) assessed as (S)-3-(1-(benzo[d][1,3]dioxol-5-yl)-2-(2-methoxy-4-methylphenylsulfonamido)-2-oxoethyl)-1-methyl-1H-indole-6-carboxylic acid level at 2 mg/kg, po; type: ADME, organism-based; parameters: dose 2 mg/kg, route oral; conditions: in vivo
[11] = Plasma clearance in Rattus norvegicus (rat) at 2 mg/kg, iv; type: ADME, organism-based; parameters: dose 2 mg/kg, route intravenous
Canis familiaris [12] = test: Cardiotoxicity in Canis lupus familiaris (dog) assessed as change in left ventricular contractility at 1.5 to 15 mg/kg, po; type: toxicity, organism-based, Heart left ventricle; parameters: dose 1.5-15 mg/kg, route oral; conditions: in vivo
[13] = Elimination half life in Rattus norvegicus (rat) at 2 mg/kg, iv; type: ADME, organism-based; parameters: dose 2 mg/kg, route intravenous; conditions: in vivo, read-out: beta t1/2 (converted)
Rattus norvegicus [14] = test: Toxicity in Rattus norvegicus (rat) at 30 mg/kg, po QD for 5 days; type: organism-based; parameters: dose 30 mg/kg, route oral; conditions: in vivo, 120 h
Canis familiaris [15] = test: Cardiotoxicity in Canis lupus familiaris (dog) assessed as change in heart rate at 1.5 to 15 mg/kg, po; type: toxicity, organism-based; parameters: dose 1.5-15 mg/kg, route oral; conditions: in vivo
Canis familiaris [16] = test: Cardiotoxicity in Canis lupus familiaris (dog) assessed as change in ECG at 1.5 to 15 mg/kg, po; type: toxicity, organism-based; parameters: dose 1.5-15 mg/kg, route oral; conditions: in vivo
[17] = Half life in Rattus norvegicus (rat) liver microsome at 1 uM; type: ADME; conditions: liver microsomes
[18] = Volume of distribution in Rattus norvegicus (rat) at 2 mg/kg, iv; type: ADME, organism-based; parameters: dose 2 mg/kg, route intravenous; conditions: in vivo
[19] = Half life in Homo sapiens (human) liver microsome at 1 uM; type: ADME; conditions: liver microsomes
Liver cytosol [20] = test: Prodrug conversion in male Rattus norvegicus (rat) liver cytosol assessed as (S)-3-(1-(benzo[d][1,3]dioxol-5-yl)-2-(2-methoxy-4-methylphenylsulfonamido)-2-oxoethyl)-1-methyl-1H-indole-6-carboxylic acid formation; type: ADME, tissue-based
[21] = Cmax in Rattus norvegicus (rat) at 2 mg/kg, po; type: ADME, organism-based; parameters: dose 2 mg/kg, route oral; conditions: in vivo
[22] = Half life in Canis lupus familiaris (dog) liver microsome at 1 uM; type: ADME; conditions: liver microsomes
Liver cytosol [23] = test: Prodrug conversion in Sus scrofa (pig) liver cytosol assessed as (S)-3-(1-(benzo[d][1,3]dioxol-5-yl)-2-(2-methoxy-4-methylphenylsulfonamido)-2-oxoethyl)-1-methyl-1H-indole-6-carboxylic acid formation; type: ADME, tissue-based
Rattus norvegicus [24] = test: Drug absorption in Rattus norvegicus (rat) assessed as (S)-3-(1-(benzo[d][1,3]dioxol-5-yl)-2-(2-methoxy-4-methylphenylsulfonamido)-2-oxoethyl)-1-methyl-1H-indole-6-carboxylic acid level at 2 mg/kg; type: ADME, organism-based; parameters: dose 2 mg/kg; conditions: in vivo
Liver cytosol [25] = test: Prodrug conversion in Homo sapiens (human) liver cytosol assessed as (S)-3-(1-(benzo[d][1,3]dioxol-5-yl)-2-(2-methoxy-4-methylphenylsulfonamido)-2-oxoethyl)-1-methyl-1H-indole-6-carboxylic acid formation; type: ADME, tissue-based
Rattus norvegicus [26] = test: Cmax in Rattus norvegicus (rat) assessed as (S)-3-(1-(benzo[d][1,3]dioxol-5-yl)-2-(2-methoxy-4-methylphenylsulfonamido)-2-oxoethyl)-1-methyl-1H-indole-6-carboxylic acid level at 2 mg/kg, po; type: ADME, organism-based; parameters: dose 2 mg/kg, route oral; conditions: in vivo
[27] = Tmax in Rattus norvegicus (rat) at 2 mg/kg, po; type: ADME, organism-based; parameters: dose 2 mg/kg, route oral; conditions: in vivo
Rattus norvegicus [28] = test: Apparent elimination half life in Rattus norvegicus (rat) assessed as (S)-3-(1-(benzo[d][1,3]dioxol-5-yl)-2-(2-methoxy-4-methylphenylsulfonamido)-2-oxoethyl)-1-methyl-1H-indole-6-carboxylic acid level at 2 mg/kg, po; type: ADME, organism-based; parameters: dose 2 mg/kg, route oral; conditions: in vivo

COc1cc(C)ccc1S(=O)(=O)NC(=O)[C@@H](c1ccc2c(c1)OCO2)c1cn(C)c2cc(C(=O)O)ccc12
IC50 [1]: 325000 nM
IC50 [2]: 347 nM
Ki [2]: 1460 nM
IC50 (Endothelin-1 receptor): 4.2 nM

COc1cc(C)ccc1S(=O)(=O)NC(=O)C(c1ccc2c(c1)OCO2)c1cn(C)c2cc(CO)ccc12 (configuration not stated)
CL free (Rattus norvegicus [3]): 7200 mL/min/kg
Fu [4]: 0.01%
Papp [5]: 1.2 ×10⁻⁶ cm/s
Vd [6]: 1.2 L/kg
Fa [7]: 55%
IC50 [2]: 245 nM
IC50 (Endothelin-1 receptor): 8.7 nM

COc1cc(C)ccc1S(=O)(=O)NC(=O)[C@@H](c1ccc2c(c1)OCO2)c1cn(C)c2cc(CO)ccc12
Drug metabolism (Rattus norvegicus [8]): Active
Drug metabolism (Rattus norvegicus [9]): Active
Tmax (Rattus norvegicus [10]): 4 h
clearance [11]: 1.7 mL/min/kg
Activity (Canis familiaris [12]): Non-toxic
half-life [13]: 1.1 h
Activity (Rattus norvegicus [14]): Non-toxic
Activity (Canis familiaris [15]): Non-toxic
Activity (Canis familiaris [16]): Non-toxic
half-life at 1 µM [17]: > 2 h
Vd [18]: 0.16 L/kg
half-life at 1 µM [19]: > 2 h
Drug metabolism (Liver cytosol [20]): Active
IC50 [1]: 765000 nM
Cmax [21]: 48 ng/mL
half-life at 1 µM [22]: > 2 h
Drug metabolism (Liver cytosol [23]): Active
Drug absorption (Rattus norvegicus [24]): 36%
IC50 [2]: 683 nM
Ki [2]: 1500 nM
Drug metabolism (Liver cytosol [25]): Active
Cmax (Rattus norvegicus [26]): 83 ng/mL
Tmax [27]: 0.25 h
IC50 (Endothelin-1 receptor): 2.2 nM
Ki (Endothelin-1 receptor): 2.2 nM
betat1/2(app) (Rattus norvegicus [28]): 9 h

COc1cc(C)ccc1S(=O)(=O)NC(=O)C(c1ccc2c(c1)OCO2)c1cn(C)c2cc(C(N)=O)ccc12 (racemic)
CL free (Rattus norvegicus [3]): 1329 mL/min/kg
Fu [4]: 0.007%
Papp [5]: 1.6 ×10⁻⁶ cm/s
Vd [6]: 0.6 L/kg
Fa [7]: < 5%
IC50 [2]: 275 nM

CCn1cc(C(C(=O)NS(=O)(=O)c2ccc(C(C)C)cc2)c2ccc3c(c2)OCO3)c2ccccc21 (racemic)
IC50 (Endothelin-1 receptor): 560 nM

Cn1cc(C(C(=O)NS(=O)(=O)c2ccc(CC(=O)O)cc2)c2ccc3c(c2)OCO3)c2ccc(C(N)=O)cc21 (racemic)
CL free (Rattus norvegicus [3]): 138 mL/min/kg
Fu [4]: 0.048%
Papp [5]: < 0.5 ×10⁻⁶ cm/s
Vd [6]: 0.3 L/kg
Fa [7]: < 5%
IC50 [2]: 574 nM
IC50 (Endothelin-1 receptor): 1.7 nM

COc1cc(C)ccc1S(=O)(=O)NC(=O)C(c1ccc2c(c1)OCO2)c1cn(C)c2cc(C(=O)O)ccc12 (racemic)
CL free (Rattus norvegicus [3]): 609 mL/min/kg
Fu [4]: 0.01%
Papp [5]: < 0.5 ×10⁻⁶ cm/s
Vd [6]: 0.6 L/kg
Fa [7]: < 5%
IC50 [2]: 650 nM
IC50 (Endothelin-1 receptor): 5.3 nM

Cc1ccc(S(=O)(=O)NC(=O)C(c2ccc3c(c2)OCO3)c2cn(C)c3cc(CO)ccc23)cc1 (racemic)
IC50 (Endothelin-1 receptor): 34 nM

COc1cc(C)ccc1S(=O)(=O)NC(=O)C(c1ccc2c(c1)OCO2)c1cn(C)c2cc(Cl)ccc12 (racemic)
IC50 [2]: 217 nM
IC50 (Endothelin-1 receptor): 46 nM

COc1cc(C)ccc1S(=O)(=O)NC(=O)C(c1ccc2c(c1)OCO2)c1cn(C)c2cc(F)ccc12 (racemic)
CL free (Rattus norvegicus [3]): 1740 mL/min/kg
Fu [4]: 0.005%
Papp [5]: 5 ×10⁻⁶ cm/s
Vd [6]: 4 L/kg
Fa [7]: 100%
IC50 [2]: 219 nM
IC50 (Endothelin-1 receptor): 14 nM

COc1cc(C)ccc1S(=O)(=O)NC(=O)C(c1ccc2c(c1)OCO2)c1cn(C)c2cc(C(C)=O)ccc12 (racemic)
CL free (Rattus norvegicus [3]): 17000 mL/min/kg
Fu [4]: 0.002%
Papp [5]: 20 ×10⁻⁶ cm/s
Vd [6]: 5 L/kg
Fa [7]: 70%
IC50 [2]: 906 nM
IC50 (Endothelin-1 receptor): 1.4 nM

COc1cc(C)ccc1S(=O)(=O)NC(=O)C(c1ccc2c(c1)OCO2)c1cn(C)c2cc(C#N)ccc12 (racemic)
CL free (Rattus norvegicus [3]): 19000 mL/min/kg
Fu [4]: 0.002%
Papp [5]: 20 ×10⁻⁶ cm/s
Vd [6]: 2.8 L/kg
IC50 [2]: 421 nM
IC50 (Endothelin-1 receptor): 11 nM

COCc1ccc2c(C(C(=O)NS(=O)(=O)c3ccc(C)cc3OC)c3ccc4c(c3)OCO4)cn(C)c2c1 (racemic)
IC50 [2]: 1140 nM
IC50 (Endothelin-1 receptor): 8.8 nM

CCOC(=O)c1ccc2c(C(C(=O)NS(=O)(=O)c3ccc(C)cc3OC)c3ccc4c(c3)OCO4)cn(C)c2c1 (racemic)
IC50 [2]: 240 nM
IC50 (Endothelin-1 receptor): 18 nM

CCn1cc(C(C(=O)NS(=O)(=O)c2ccc(C(C)C)cc2)c2ccc3c(c2)OCO3)c2ccc(C(=O)O)cc21 (racemic)
IC50 [2]: 69 nM

CC(C)c1ccc(S(=O)(=O)NC(=O)C(c2ccc3c(c2)OCO3)c2cn(C)c3cc(C(N)=O)ccc23)cc1 (racemic)
IC50 [2]: 15 nM
